Tests used:
[1] = for vapor or sublimation pressure: Liquid, Closed cell (Static) method
[2] = Molar enthalpy of transition or fusion; conditions: Crystal; DSC
[3] = molar heat capacity at constant pressure; conditions: 101.33 kPa, Crystal, DSC

CCCCO [butan-1-ol]
[1]
Conditions	vapor or sublimation pressure [kPa]
333.2 K	8.1
348.2 K	17.5

O=C(O)CC(O)(CC(=O)O)C(=O)O [citric acid]
Conditions	Normal melting temperature [°C]
[1], Crystal, DTA	151.8

Conditions	Molar enthalpy of transition or fusion [kcal/mol]
[2]	14.1

[3]
Conditions	molar heat capacity at constant pressure [J/K/mol]
324.9 K	239.8
328.2 K	243
331.5 K	245.9
334.9 K	248.6
338.2 K	251.2
341.5 K	253.6
344.9 K	255.9
348.2 K	258.2
351.5 K	260.4
354.9 K	262.5
358.2 K	264.6
361.5 K	266.6
364.9 K	268.7
368.2 K	270.7
371.5 K	272.6
374.9 K	274.5
378.2 K	276.2
381.5 K	278.1
384.9 K	279.9
388.2 K	281.8
391.5 K	283.7
394.9 K	286
